# According to PubChem BioAssay (NCI):
#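 1) Cells in 96-well plates. 2) Compound, 48 h, 5 concentrations. 3) Linear interpolation between surrounding doses. 4) Unreached endpoint = highest concentration. The concentration for full growth arrest is given as TGI.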
# Key:
# Assay in all cases: NCI anticancer screen, dose series, 48 h
# IGROV1 ovarian = test system: IGROV1 ovarian
# OVCAR-3 ovarian = test system: OVCAR-3 ovarian
# CCRF-CEM leukemia = test system: CCRF-CEM leukemia
# MALME-3M melanoma = test system: MALME-3M melanoma
# HS 578T breast = test system: HS 578T breast
# NCI-H23 lung = test system: NCI-H23 lung
# HCC-2998 colon = test system: HCC-2998 colon
# MDA-N = test system: MDA-N
# NCI-H226 lung = test system: NCI-H226 lung
# U251 CNS = test system: U251 CNS
# K-562 leukemia = test system: K-562 leukemia
# MOLT-4 leukemia = test system: MOLT-4 leukemia
# NCI-H522 lung = test system: NCI-H522 lung
# RXF 393 renal = test system: RXF 393 renal
# UO-31 renal = test system: UO-31 renal
# HCT-116 colon = test system: HCT-116 colon
# PC-3 prostate = test system: PC-3 prostate
# OVCAR-4 ovarian = test system: OVCAR-4 ovarian
# SF-539 CNS = test system: SF-539 CNS
SMILES,TGI (IGROV1 ovarian) [µM],TGI (OVCAR-3 ovarian) [µM],TGI (CCRF-CEM leukemia) [µM],TGI (MALME-3M melanoma) [µM],TGI (HS 578T breast) [µM],TGI (NCI-H23 lung) [µM],TGI (HCC-2998 colon) [µM],TGI (MDA-N) [µM],TGI (NCI-H226 lung) [µM],TGI (U251 CNS) [µM],TGI (K-562 leukemia) [µM],TGI (MOLT-4 leukemia) [µM],TGI (NCI-H522 lung) [µM],TGI (RXF 393 renal) [µM],TGI (UO-31 renal) [µM],TGI (HCT-116 colon) [µM],TGI (PC-3 prostate) [µM],TGI (OVCAR-4 ovarian) [µM],TGI (SF-539 CNS) [µM]
CC(C)(CC#N)c1cc(CC(C)(C)c2cc(CC(C)(C)c3cc(C(C)(C)C4(C)OCCO4)no3)no2)no1,> 100,> 100,> 100,> 100,88.7,> 100,> 100,> 100,> 100,> 100,> 100,> 100,> 100,41.3,> 100,> 100,> 100,91,–
CCOP(=O)(OCC)[C@]12C[C@@H](C)C=C[C@H]1COC2=O,–,> 100,> 100,> 100,> 100,> 100,> 100,> 100,–,> 100,> 100,> 100,> 100,> 100,> 100,> 100,> 100,> 100,> 100
CCO/C(O)=C(/C(=N)N1CCCC1)C(=O)Nc1ccc(F)cc1,> 100,> 100,> 100,> 100,> 100,59.4,> 100,> 100,> 100,> 100,> 100,> 100,> 100,> 100,–,> 100,> 100,> 100,> 100
O=c1oc2ccccc2c(O)c1C(c1ccc2c(c1)Cc1ccccc1-2)c1c(O)c2ccccc2oc1=O,> 100,> 100,> 100,71.4,86.3,69.5,33.6,36.7,> 100,60.3,–,> 100,49.2,35.5,33.1,> 100,> 100,> 100,43.5
CC(/C=N\NC(=S)N(C)C)=N/NC(=S)N(C)C,16.9,> 22.8,–,> 34.2,52.8,> 37.7,75.9,> 100,13.9,> 100,> 100,> 100,20.6,2.58,> 39.2,31.4,> 100,> 100,> 100
Clc1ccc(C=NC23CC4CC(CC(C4)C2)C3)cc1Cl,> 10,> 10,> 10,> 10,> 10,> 10,> 10,> 10,> 10,> 10,> 10,> 10,> 10,> 10,–,> 10,> 10,> 10,> 10
CC1(C)N=C(C(=O)c2ccccc2)N(O)C1(O)c1ccccc1 (stereo not drawn),> 100,> 100,> 100,> 100,> 100,> 100,> 100,> 100,> 100,> 100,> 100,> 100,–,> 100,> 100,> 100,> 100,> 100,> 100
CC(C)c1cccc(C(=O)NCCN(C)C)c1[N+](=O)[O-],> 100,> 100,> 100,> 100,> 100,> 100,> 100,> 100,> 100,> 100,> 100,> 100,> 100,–,> 100,> 100,> 100,–,> 100
O=C1/C(=C/c2ccccc2)CCc2ccccc21,54.3,30.2,18.3,31.9,72.4,45.8,38.6,32.2,35,30.4,20.5,40.8,–,29.7,27.8,33.5,38.6,28,31.3
O=C1CCCCCC1CC(Sc1ccccc1)Sc1ccccc1 (stereo not drawn),> 100,> 100,> 100,> 100,> 100,> 100,> 100,> 100,> 100,> 100,> 100,47.3,> 100,> 100,> 100,–,> 100,> 100,> 100
CCNc1nc2c(ncn2C2CC(O)C(COP(=O)(O)O)O2)c(=O)[nH]1 (stereo not drawn),> 100,> 100,–,> 100,> 100,> 100,> 100,> 100,> 100,> 100,–,–,> 100,–,–,> 100,> 100,> 100,> 100
O=C(O)C1(Cc2ccc3c(c2)CCC3)Cc2ccccc2C1=O (stereo not drawn),> 100,> 100,> 100,> 100,> 100,> 100,> 100,> 100,> 100,> 100,> 100,> 100,–,> 100,> 100,> 100,> 100,> 100,> 100
CCSC1=N/C(=C/c2ccccc2O)C(=O)N1,> 100,> 100,> 100,> 100,> 100,> 100,> 100,> 100,> 100,> 100,> 100,> 100,> 100,68.1,> 100,> 100,> 100,–,91.8
